In paper PMC10999543, “Identification of kinase modulators as host-directed therapeutics against intracellular methicillin-resistant Staphylococcus aureus” (Frontiers in Cellular and Infection Microbiology, 2024):
Read-outs that look alike come from different tables or passages of the source.

How the values were obtained:
HeLa cells = assay: Compound screen by flow cytometry: HeLa cell count as surrogate readout of cell viability (z-scoreHeLa); assay type: cell-based, human
In short: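 HeLa cells were infected with GFP-MRSA (mean MOI 6.8 ± 4.6) for 1 h, and extracellular bacteria were killed with 30 µg/ml gentamicin. Cells were then incubated overnight with kinase inhibitors in 5 µg/ml gentamicin, in triplicate against DMSO controls. Flow-cytometric cell count served as a viability surrogate, expressed as a plate z-score.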

intracellular MRSA = assay type: cell-based, Staphylococcus aureus; settings: for %GFP+ rep 1 / z-scoreMRSA+ rep 1: replicate 1; for %GFP+ rep 2 / z-scoreMRSA+ rep 2: replicate 2; for %GFP+ rep 3 / z-scoreMRSA+ rep 3: replicate 3; for z-scoreMRSA+ mean: mean of 3 replicates
In short: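 HeLa cells infected with GFP-MRSA (MOI ~6.8), gentamicin-cleared, then incubated overnight at 37°C with inhibitors plus 5 µg/ml gentamicin; DMSO as negative control, triplicates. Flow cytometry gave % GFP-positive cells and cell count (viability surrogate); hits by plate z-score (MRSA ≤ -2, HeLa count ≥ -3).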

[1] = PKIS compound screen raw data, HeLa cell count, replicate 1
[2] = PKIS compound screen raw data, HeLa cell count, replicate 2
[3] = PKIS compound screen raw data, HeLa cell count, replicate 3
[4] = PKIS compound screen, HeLa cell count, mean of 3 replicates
[5] = PKIS compound screen, HeLa cell count, replicate 1
[6] = PKIS compound screen, HeLa cell count, replicate 2
[7] = PKIS compound screen, HeLa cell count, replicate 3
[8] = PKIS compound screen, Yes/No call
[9] = PKIS compound screen, Yes/No call on z-scoreHeLa
[10] = PKIS compound screen, mean of 3 replicates
[11] = PKIS compound screen, replicate 1
[12] = PKIS compound screen, replicate 2
[13] = PKIS compound screen, replicate 3
[14] = PKIS compounds raw data, replicate 1, HeLa cell count
[15] = PKIS compounds raw data, replicate 2, HeLa cell count
[16] = PKIS compounds raw data, replicate 3, HeLa cell count
[17] = PKIS compound screen raw data, MRSA-infected HeLa cells
[18] = PKIS compound screen, MRSA-infected HeLa cells
[19] = PKIS compound screen, Yes/No call (effect without cell death)
[20] = PKIS compound screen, Yes/No call on z-scoreMRSA+
[21] = PKIS compounds raw data, MRSA-infected HeLa cells
[22] = compound screen, HeLa cell count, mean of 3 replicates
[23] = compound screen, HeLa cell count, replicate 1
[24] = compound screen, HeLa cell count, replicate 2
[25] = compound screen, HeLa cell count, replicate 3
[26] = Yes/No: effect without cell death
[27] = compound screen, MRSA-infected HeLa cells

Compound | cell count rep 1 (HeLa cells; [1]) | cell count rep 2 (HeLa cells; [2]) | cell count rep 3 (HeLa cells; [3]) | z-scoreHeLa mean (HeLa cells; [4]) | z-scoreHeLa rep 1 (HeLa cells; [5]) | z-scoreHeLa rep 2 (HeLa cells; [6]) | z-scoreHeLa rep 3 (HeLa cells; [7]) | cell death (HeLa cells; [9]) | %GFP+ rep 1 (intracellular MRSA; [17]) | %GFP+ rep 2 (intracellular MRSA; [17]) | %GFP+ rep 3 (intracellular MRSA; [17]) | z-scoreMRSA+ mean (intracellular MRSA; [18]) | z-scoreMRSA+ rep 1 (intracellular MRSA; [18]) | z-scoreMRSA+ rep 2 (intracellular MRSA; [18]) | z-scoreMRSA+ rep 3 (intracellular MRSA; [18]) | hit (intracellular MRSA; [19]) | effect (intracellular MRSA; [20]) | also measured
COc1cc(Nc2nccc(N3CCC(NC(=O)Nc4ccc5c(c4)OCO5)C3)n2)cc(OC)c1OC (stereo not drawn) [GSK1379766A] | 25836 | 29727 | 37841 | -0.17 | 0.87 | -0.94 | -0.43 | No | 17.4% | 18.6% | 19.8% | -0.04 | -0.15 | 0.0226 | 0.00377 | No | No | cell death (HeLa cells; [8]): No; z-scoreHeLa mean (HeLa cells; [10]): 0.15; z-scoreHeLa rep 1 (HeLa cells; [11]): 0.05; z-scoreHeLa rep 2 (HeLa cells; [12]): -0.13; z-scoreHeLa rep 3 (HeLa cells; [13]): 0.53; cell count rep 1 (HeLa cells; [14]): 6133; cell count rep 2 (HeLa cells; [15]): 5809; cell count rep 3 (HeLa cells; [16]): 6429; effect (intracellular MRSA; [8]): No; z-scoreMRSA+ mean (intracellular MRSA; PKIS compound screen): 0.27; z-scoreMRSA+ rep 1 (intracellular MRSA; PKIS compound screen): 0.18; z-scoreMRSA+ rep 2 (intracellular MRSA; PKIS compound screen): 0.32; z-scoreMRSA+ rep 3 (intracellular MRSA; PKIS compound screen): 0.30; %GFP+ rep 1 (intracellular MRSA; [21]): 28.0%; %GFP+ rep 2 (intracellular MRSA; [21]): 27.7%; %GFP+ rep 3 (intracellular MRSA; [21]): 28.9%
SB-739245-AC | – | – | – | – | – | – | – | – | 12.9% | 15.6% | 16.3% | -1.17 | -1.57 | -0.88 | -1.06 | No | No | cell count rep 1 (HeLa cells): 23497; cell count rep 2 (HeLa cells): 32010; cell count rep 3 (HeLa cells): 40050; cell death (HeLa cells): No; z-scoreHeLa mean (HeLa cells): -0.0274; z-scoreHeLa rep 1 (HeLa cells): 0.51; z-scoreHeLa rep 2 (HeLa cells): -0.52; z-scoreHeLa rep 3 (HeLa cells): -0.0761
COC(=O)Nc1nc2ccc(Oc3ccc(NC(=O)Nc4cc(C(F)(F)F)ccc4F)cc3)cc2n1C [GW692089A] | 28483 | 25969 | 19864 | 0.00395 | -0.29 | 0.12 | 0.18 | No | 16.9% | 18.4% | 19.6% | -0.41 | -0.50 | -0.28 | -0.45 | No | No | –
CN(c1ccc2c(c1)nc(NCc1ccc(F)cc1)n2C)c1ccnc(Nc2ccc(CS(C)(=O)=O)cc2)n1 [GW813244A] | 29228 | 26803 | 36349 | -0.26 | 1.38 | -1.49 | -0.67 | No | 19.9% | 20.6% | 22.3% | 0.68 | 0.65 | 0.62 | 0.76 | No | No | –
CC(=O)N1CCN(c2ccc(Nc3nccc(-c4sc(C(C)C)nc4-c4cccc(NS(=O)(=O)c5cccc(Cl)c5)c4)n3)cn2)CC1 [GSK1660437A] | 4478 | 3506 | 4504 | – | – | – | – | – | 26.9% | 24.1% | 23.6% | – | – | – | – | – | – | cell death (HeLa cells; Yes/No call from z-scoreHeLa): No; z-scoreHeLa mean (HeLa cells; [22]): -0.33; z-scoreHeLa rep 1 (HeLa cells; [23]): 0.09; z-scoreHeLa rep 2 (HeLa cells; [24]): -0.61; z-scoreHeLa rep 3 (HeLa cells; [25]): -0.46; effect (intracellular MRSA; Yes/No call from z-scoreMRSA+): No; hit (intracellular MRSA; [26]): No; z-scoreMRSA+ mean (intracellular MRSA; [27]): 0.39; z-scoreMRSA+ rep 1 (intracellular MRSA; [27]): 0.38; z-scoreMRSA+ rep 2 (intracellular MRSA; [27]): 0.36; z-scoreMRSA+ rep 3 (intracellular MRSA; [27]): 0.42
CN(C)CCCNc1nccc(-c2c(-c3ccc(F)cc3)nn3cc(C(F)(F)F)ccc23)n1 [GW618013A] | 23652 | 24495 | 45248 | -0.21 | 0.54 | -1.92 | 0.75 | No | 10.7% | 13.4% | 14.0% | -1.86 | -2.27 | -1.54 | -1.76 | No | No | –
COc1ccc(CNC(=O)NC2CCN(c3ccnc(Nc4ccc(OC)cc4)n3)C2)cc1 (stereo not drawn) [GSK1379727A] | – | – | – | – | – | – | – | – | – | – | – | – | – | – | – | No | – | cell death (HeLa cells; [8]): No; z-scoreHeLa mean (HeLa cells; [10]): 0.68; z-scoreHeLa rep 1 (HeLa cells; [11]): 0.99; z-scoreHeLa rep 2 (HeLa cells; [12]): 0.43; z-scoreHeLa rep 3 (HeLa cells; [13]): 0.62; cell count rep 1 (HeLa cells; [14]): 7697; cell count rep 2 (HeLa cells; [15]): 6658; cell count rep 3 (HeLa cells; [16]): 6574; effect (intracellular MRSA; [8]): No; z-scoreMRSA+ mean (intracellular MRSA; PKIS compound screen): 1.14; z-scoreMRSA+ rep 1 (intracellular MRSA; PKIS compound screen): 0.96; z-scoreMRSA+ rep 2 (intracellular MRSA; PKIS compound screen): 1.05; z-scoreMRSA+ rep 3 (intracellular MRSA; PKIS compound screen): 1.40; %GFP+ rep 1 (intracellular MRSA; [21]): 32.0%; %GFP+ rep 2 (intracellular MRSA; [21]): 31.5%; %GFP+ rep 3 (intracellular MRSA; [21]): 34.8%
OCCCNc1nccc(-c2c(-c3ccc(F)cc3)nn3cc(C(F)(F)F)ccc23)n1 [GW569293E] | 13158 | 40183 | 38241 | -0.14 | -1.06 | 1.01 | -0.36 | No | 17.0% | 16.9% | 19.3% | -0.30 | -0.27 | -0.49 | -0.15 | No | No | –
Cc1c2ccc(N(C)c3ccnc(Nc4cccc(S(N)(=O)=O)c4)n3)cc2nn1C [GW771127A] | 10020 | 29599 | 33795 | -1.19 | -1.53 | -0.97 | -1.07 | No | 14.2% | 13.8% | 15.3% | -1.32 | -1.16 | -1.42 | -1.37 | No | No | –
Cc1cccc(-c2nc(Nc3ccc4c(cnn4C)c3)c3ccccc3n2)n1 [GW876731X] | 29057 | 27157 | 25742 | – | – | – | – | – | 19.5% | 19.1% | 19.8% | – | – | – | – | – | – | cell death (HeLa cells; Yes/No call from z-scoreHeLa): No; z-scoreHeLa mean (HeLa cells; [22]): 0.49; z-scoreHeLa rep 1 (HeLa cells; [23]): -0.19; z-scoreHeLa rep 2 (HeLa cells; [24]): 0.32; z-scoreHeLa rep 3 (HeLa cells; [25]): 1.33; effect (intracellular MRSA; Yes/No call from z-scoreMRSA+): No; hit (intracellular MRSA; [26]): No; z-scoreMRSA+ mean (intracellular MRSA; [27]): -0.09; z-scoreMRSA+ rep 1 (intracellular MRSA; [27]): 0.19; z-scoreMRSA+ rep 2 (intracellular MRSA; [27]): -0.0842; z-scoreMRSA+ rep 3 (intracellular MRSA; [27]): -0.39
